Data taken from patent US4771044A, “Tetraoxo compounds and pharmaceutical compositions” (Kali-Chemie Pharma GmbH, priority 1985, dated 1988).
Where two headings read alike, the source gives them in different places.

Legend:
[1] = tested on: female Wistar rats; assay: Behavioral changes of rats in punishment conflict situation (Skinner box), anxiolytic properties; assay type: in vivo, rat; settings: po, 1 h
Procedure: 4. Evaluation of anxiolytic properties.
For evaluating the anxiolytic properties of the compounds a modified method according to Davidson et al (see The Benzodiazepines, Raven Press New York 1973 pp 327-345) is used, whereby the ability of the compounds to change the behavior of rats in a punishment conflict situation is examined.
In order to create the conflict situation the following experimental set up and procedure are used:
The tests are performed in Skinner boxes which are provided with an electrifyable grid-floor, a lever which has to be pressed by the rat, an automatic feeder and 2 different light sources. Female Wistar rats having a body weight of 180-300 g are used. Prior to testing the animals are trained to obtain food by pressing the lever, whereby 2 phases of different conditions alternate. The two phases are distinguished by different lightening. During one phase a food reward is given at a fixed ratio after each 10th lever press (=FR 10), yet simultaneous by with the food pellet an electric food shock punishment is delivered. During the other phase food reward is obtained without any electric punishment, yet lever pressing is rewarded with a food pellet far less frequently and at varying time intervals only (average interval 30 sec=VI30). During each […]. trial session […] alternate with 6 FP10 phases (120 sec. each).
For testing the compounds each animal is subjected to the 47 min. test procedure once a day on 4 consecutive days always at the same time. On days 1, 2 and 3 the animals are given per os 10 ml/kg of 2% tylose soluton 60 min. prior to test begin. On day 4 they are given a dose of the test compound in the tylose solution. For each animal the number of lever press responses in the punished FR10 phases and in the unpunished VI30 phases are recorded seperately for each day. For each animal the mean values from the results of the first three days are taken as control values. The results from the 4th day are compared with these control values. The lowest doses which produce significant changes in the number of lever presses are determined for the unpunished phase and for the punished phase as the minimum effective doses (=MEDup and MEpp). Increased activity during the punished phase is due to anxiolytic effects of the test compound. Reduced activity during the unpunished phase is an indication of sedative effects of the compound.

[2] = tested on: male mice; settings: mouse, in vivo, 1440 min
Procedure: 1. Determination of Minimum Toxic Dose
Male mice weighing 20 to 25 g are administered per os and i.p. maximum doses of 300 mg/kg of the test substances. The animals are carefully observed for three hours for toxic symptoms. During a period of 24 hours following the administration all symptoms and deaths are recorded. Side reactions are likewise observed and recorded. When death or strong toxic symptoms are observed, further mice are administered increasingly smaller doses. The lowest dose which produces death or strong toxic symptoms is given as the minimum toxic dose.

[3] = tested on: female Wistar rats; assay: CAR-test (conditioned avoidance response) in rats, antipsychotic properties; assay type: in vivo; settings: po, 1 h, rat, per os, one hour prior to testing
Procedure: 2. Evaluation of antipsychotic properties in the CAR-test procedure in rats.
The CAR test is performed in a modification of the experimental set up described by Capaldi et al (see R. D. Myers (ed): Methods in Psychobiology, Academic Press, New York, pp. 71-74). Fully automated one-way shuttle boxes are used, which are divided into 2 compartments by a wall with a hole. The floor of the box is a grid of stainless steel through which electric stimuli can be delivered. The ceiling of the box is provided with a lamp and a loudspeaker giving a buzzertone. In order to avoid the electric stimulus in the first starting compartment the animals can cross over into the safe second compartment.
During the test procedure the animals are placed into the starting compartment and at the same time the light and the loudspeaker are switched on as a warning signal (=conditioned stimulus). If at this warning signal already the animals cross over into the safe compartment, this is considered a CAR and is automatically recorded. If the animals don't cross over into the safe compartment within 5 sec. an electric shock is delivered additionally through the floor grid (=unconditioned stimulus) for a period of up to 15 sec. If at the presentation of the electric shock the animals cross over into the safe compartment, this is considered an unconditioned escape response (=UER). As soon as the animals have crossed over into the safe compartment the stimuli are switched off automatically.
For the test female Wistar rats having a body weight of 140-210 g are used. They are trained in a 20 trial session on the day before and only such animals which show CAR exclusively are used for the drug experiments.
Groups of 4 animals are used for each dose of the test compounds, the animals are placed into the test situation 15 times each, and the average value of the last 10 trials is taken into account.
The test compounds are administered per os in a volume of 10 ml/kg of 2% tylose solution one hour prior to testing. To a control group tylose solution only is administered. The dose which reduces CAR by 50% and thus leads to a 50% avoidance block is determined (=ED50 AB). Furthermore the dosis which reduces UER by 50% and thus leads to a 50% escape block is determined (=ED50 EB).

[4] = tested on: male NMRI-mice; assay: Inducement of head-shaking syndrome in mice by interaction with subthreshold dose of 5-HTP, antidepressive properties; assay type: in vivo; settings: mouse, p.o.; pargyline 25 mg/kg i.p. pretreatment, 50 mg/kg 5-HTP i.p.; 60 min
Procedure: 3. Evaluation of antidepressive properties.
This effect is typical of antidepressives. For this a modified method according to Corne et al (see Br.J.Pharmacol. 20, pp 106-120) is used to determine the ability of the compounds to induce a head-shaking syndrome in mice in interaction with a subthreshold dose of 5-HTP.
Male NMRI-mice having a body weight of 20-30 g are used. 60 min. prior to administration of the test compounds the animals are given an i.p. injection of 25 mg/kg of the MAO-inhibitor pargyline dissolved in a volume of 10 ml/kg of 2% tylose solution. Groups of 20 animals are used for each dose of the test compounds. The test compounds are administered per os in a volume of 10 ml/kg of 2% tylose solution. After 30 min. 50 mg/kg 5-HTP in a volume of 10 ml/kg of 2% tylose solution are injected i.p. and each animal is placed in a case individually. A group of control animals receives only the pargyline injection, the 5-HTP injection and 2% tylose solution p.o.
60 min. after administration of the test compounds (=30 min. after 5-HTP injection) the animals are observed for 120 sec. in order to check, whether or not the head-shaking-syndrome occurs.
The ED50 is defined as the dose at which the number of animals showing a head-shake-syndrome is increased by 50% as compared with the control group.

[5] = read-out: ED50 AB (dose leading to 50% avoidance block)
[6] = read-out: ED50 EB (dose leading to 50% escape block)
[7] = rat, p.o., punished FR10 phase, 60 min. prior to test, read-out: MEDPP (minimum effective dose, punished phase)
[8] = rat, p.o., unpunished VI30 phase, 60 min. prior to test, read-out: MEDUP (minimum effective dose, unpunished phase)

How did the minimal effective dose ([1]; Rattus norvegicus, read-out: MEDPP (minimum effective dose, punished phase)) turn out when `CN1C(=O)CN=C(c2ccccc2)c2cc(Cl)ccc21` [Diazepam, reference compound] was run?
Its minimal effective dose is 31.6 µmol/kg.

And the minimal effective dose ([1]; Rattus norvegicus, read-out: MEDUP (minimum effective dose, unpunished phase))?
The minimal effective dose was 46.4 µmol/kg.

Which results are given for `CCCCN1C(=O)C2C(=O)N(CCCCN3CCN(c4ccccc4OCC)CC3)C(=O)C(C1=O)C2(C)C` [Compound 3110]?
Minimum Toxic Dose ([2]; ip): > 300 mg/kg; Minimum Toxic Dose ([2]; po): > 300 mg/kg; ED50 [3, 5]: 50 µmol/kg; ED50 [3, 6]: 200 µmol/kg; minimal effective dose [1, 7]: 6.8 µmol/kg; minimal effective dose [1, 8]: > 215 µmol/kg

For `CCCCCCN1C(=O)C2C(=O)N(CCCCCN3CCN(c4cccc(C)c4)CC3)C(=O)C(C1=O)C2(C)C` [Compound 3143], which “Minimum Toxic Dose” value ([2]; ip) is on record?
Its value is over 300 mg/kg.

And the “Minimum Toxic Dose” value ([2]; po)?
Its value is over 300 mg/kg.

And the “ED50, inducement of head-shaking-syndrome by interaction with 5-HTP” value (“ED50, inducement” below) [4]?
The value was 130 µmol/kg.

For `CCCCCCN1C(=O)C2C(=O)N(CCCCCN3CCN(c4ccccc4OC)CC3)C(=O)C(C1=O)C2(C)C` [Compound 3142], which “ED50, inducement” value [4] is on record?
The value was 74 µmol/kg.

For `CCCCN1C(=O)C2C(=O)N(CCCCN3CCN(c4ccc(F)cc4)CC3)C(=O)C(C1=O)C2(C)C` [Compound 3135], which “Minimum Toxic Dose” value ([2]; ip) is on record?
The value was over 300 mg/kg.

And the “Minimum Toxic Dose” value ([2]; po)?
Its value is over 300 mg/kg.

What about the “ED50, inducement” value [4] of the same molecule?
Its value is 72 µmol/kg.

For `CCCCN1C(=O)C2C(=O)N(CCCCN3CCN(c4ccccc4OC)CC3)C(=O)C(C1=O)C2(C)C` [Compound 3107], which “Minimum Toxic Dose” value ([2]; ip) is on record?
The value was 200 mg/kg.

What about the “Minimum Toxic Dose” value ([2]; po) of the same molecule?
The value was over 300 mg/kg.

What about the ED50 [3, 5] of the same molecule?
The ED50 was 27 µmol/kg.

What about the ED50 [3, 6] of the same molecule?
Its ED50 is 70 µmol/kg.

What about the minimal effective dose [1, 7] of the same molecule?
Its minimal effective dose is 14.7 µmol/kg.

And the minimal effective dose [1, 8]?
Its minimal effective dose is 147 µmol/kg.

What does the source list for `CCCCN1C(=O)C2C(=O)N(CCCCN3CCN(c4ncccn4)CC3)C(=O)C(C1=O)C2(C)C` [Compound 3304]?
minimal effective dose [1, 7]: 21.5 µmol/kg; minimal effective dose [1, 8]: > 215 µmol/kg
